ChEMBL document CHEMBL3352058, “Inhibition of microbial β-N-acetylhexosaminidases by 4-deoxy- and galacto-analogues of NAG-thiazoline” (Bioorg Med Chem Lett, 2014)

Columns and labels:
[1] = Inhibition of Talaromyces flavus beta-N-acetylhexosaminidase GH20 using p-nitrophenyl 2-acetamido-2-deoxy-beta-D-glucosaminide substrate at pH 7.0 and 25 degC
[2] = Inhibition of Bacteroides thetaiotaomicron beta-N-acetylglucosaminidase GH84 using p-nitrophenyl 2-acetamido-2-deoxy-beta-D-glucosaminide substrate at pH 7.0 and 25 degC
[3] = Inhibition of Streptomyces plicatus beta-N-acetylhexosaminidase GH20 using p-nitrophenyl 2-acetamido-2-deoxy-beta-D-glucosaminide substrate at pH 7.0 and 25 degC

Ki [1] [µM] | Ki [2] [µM] | Ki [3] [µM] | Structure (SMILES)
1890 | 1830 | 9900 | CC1=N[C@H]2[C@H](O[C@H](CO)C[C@@H]2O)S1
393 |  | 90.8 | CC1=N[C@@H]2[C@@H](O)[C@@H](O)[C@@H](CO)O[C@@H]2S1
42.7 | 0.029 | 24 | CC1=N[C@@H]2[C@@H](O)[C@H](O)[C@@H](CO)O[C@@H]2S1
